# Laboratory results from US20070066682A1, “Arylalkylamine vanadium (V) salts for the treatment and/or prevention of Diabetes mellitus” (priority 2005, published 2007).
# “Also recorded” adds a separate entry of the source.
# What was measured:
# diabetic rats = test: Plasma free fatty acids, triglycerides and cholesterol of diabetic rats; type: in vivo, rat
# Procedure: (§1) In glucose tolerance tests and in chronic treatments, circulating glucose concentrations were determined by a rapid glucose analyser (Accutrend® Sensor Comfort, Roche, Basel. Switzerland). Plasma insulin (IRI) concentration was determined by ELISA method using a kit obtained from Crystal Chem Inc. (Downers Grove, Ill.). Plasma triglycerides (Biosystems, Barcelona, Spain) and NEFAS (Wako Chemicals, Neuss, Germany) were determined with standard […] methods.
# isolated rat adipocytes = test: Glucose transport (2-deoxyglucose uptake) in isolated rat adipocytes; type: cell-based; details: for stimulation of glucose transport in the presence of semicarbazide: 1 mM semicarbazide; for stimulation of glucose transport in the presence of semicarbazide / stimulation of glucose transport (2-DG uptake): dihydrate; for stimulation of glucose transport (2-DG uptake): 45 min incubation
# Procedure: In order to determine whether salts formed by vanadate and benzylamine could produce an insulin mimetic effect, the effect of increasing concentrations of hexaquis(benzylammonium) decavanadate on glucose transport activity in isolated rat adipocytes was tested. […] In similar assays, the activity of hexaquis(benzylammonium) decavanadate, pentaquis(benzylammonium) decavanadate and tetraquis(benzylammonium) decavanadate on glucose transport activity in isolated rat adipocytes were analyzed.
# To determine the possible insulin mimetic effect of certain vanadium arylalkylamines, the capacity of these compounds to enhance glucose transport in isolated rat adipocytes was tested. Adipose cells from Wistar rats were incubated for 45 minutes in basal conditions (Basal) or in the presence of 100 nM insulin (Ins), and different concentrations of. hexaquis(benzylammonium) decavanadate (B6V10) in the absence or in the presence of 1 mM semicarbazide (SCZ). Subsequently, 2-DG transport was measured over a 5 min. interval.
# The effects of the three tested compounds (B6V10, B5V10 and B4V10) were compared. Adipose cells from Wistar rats were incubated for 45 minutes in basal conditions (Basal) or in the presence of 100 nM insulin (Ins), and different concentrations of. decavanadate (V10), hexaquis(benzylammonium) decavanadate (B6V10), pentaquis(benzylammonium) decavanadate (B5V10) or tetraquis(benzylammonium) decavanadate (B4V10) in the absence or in the presence of 1 mM semicarbazide (SCZ). 2-DG transport was measured over 5 min. intervals. […]
# The effects of incubation with semicarbazide or phosphatidylinositol 3-kinase inhibitors were also investigated. Adipose cells were incubated with B6V10 (25 μM, 45 min) in the absence or presence of wortmannin (2 μM, 45 min), LY294002 (10 μM, 45 min) or semicarbazide (1 mM, 45 min) and thereafter 2-deoxyglucose uptake was determined during 5 min.
# [1] = system: streptozotocin-induced diabetic rats; test: Chronic oral treatment of streptozotocin (45 mg/kg) diabetic rats, glycemia; type: in vivo, rat
# Procedure: Male Wistar rats weighting 180-220 g were purchased from Harlan (Interfauna Ibèrica S.A., Spain). Diabetes was induced by a single intraperitoneal injection of a freshly prepared solution of streptozotocin (in some studies the dose was 45 mg/kg body weight and in some others 100 mg/kg body weight dissolved in 50 mM citrate buffer, pH 4.5). Only diabetic animals with glycemia above 300 mg/dl were used. The animals were housed in animal quarters at 22° C., with a 12 h light/12 h dark cycle and were fed ad libitum. All procedures used were approved by the animal ethical committee of the University of Barcelona, Spain. Male mice C57 BL/Ks bearing the db/db mutation (Jackson Laboratories, Bar Harbor, Me.) were purchased from Harlan France (Gannat, France). C57BL/6J male mice were assigned for 16 weeks to very high-fat diet containing (in kcal): 72% from fat, 28% from proteins and <1% from carbohydrates (Burcelin et al., 2002, Am. J. Physiol. Endocrinol. Metab 282: E834-E842).
# Osmotic minipumps delivering B6V10 (2.5 μmol/kg body wt/day) or decavanadate (2.5 μmol/kg body wt/day) were implanted subcutaneously in diabetic rats anaesthetised by ketamine hydrochloride (95 mg/kg) and xylasine (10 mg/kg). […] Glycemia was measured on arterio-venous blood collected from the tail vessels at 09:00 am for two weeks, before the administration of vanadate. Insulin concentrations were determined before and after treatment. In another set of experiments, B6V10 was orally administered at a single dose of 5 μmol/kg/day during the first week and 10 μmol/kg/day during 2 additional weeks by gastric gavage. A control group received the corresponding decavanadate salt in the absence of benzylamine. At the end of the treatment, animals were sacrificed and the liver, fat pad, heart and lung were kept at −80° C. and the plasma at −20° C. until their use for in vitro analysis.
# as §1
# The effect of the oral administration of hexaquis(benzylammonium) decavanadate on glycemia from diabetic rats was also studied. Diabetes was induced in rats by intravenous administration of streptozotocin, and subsequently, a hexaquis(benzylammonium) decavanadate or sodium decavanadate unique dose was administered to the rats. […] After seven days of treatment, the dose was increased at 10 μmol/kg/day which was maintained for an additional ten days. […] Thus, glycemia in sodium decavanadate treated rats was approximately 450 mg/dl and glycemia of hexaquis(benzylammonium) decavanadate treated rats was approximately 250 mg/dl.
# Chronic in vivo efficacy of B6V10 was evaluated in streptozotocin-induced diabetic rats and in db/db mice. Streptozotocin-induced (45 mg/kg) diabetic rats were subcutaneously treated with hexaquis(benzylammonium) decavanadate (2.5 μmol/kg) (B6V10, solid squares, FIG. 8A) or with decavanadate (2.5 μmol/kg) (V10, open circles, FIG. 8A) delivered subcutaneously by osmotic minipumps implanted in the dorsal region. Diabetic rats were also sham-operated (untreated, solid diamonds, FIG. 8A). […] These experiments were repeated using an oral administration protocol. Streptozotocin-induced (45 mg/kg) diabetic rats were orally treated with hexaquis(benzylammonium) decavanadate (5 μmol/kg from day 0 to day 7 and 10 μmol/kg/day from day 7 to day 17) (B6V10, solid squares, FIG. 8B) or received decavanadate (10 μmol/kg) (V10, open circles, FIG. 8B). Nondiabetic rats were also untreated (solid triangles, FIG. 8B).
# [2] = isolated rat adipocytes, listed as hexaquis(benzylammonium) decavanadate
# [3] = isolated rat adipocytes, FIG. 1
substance,measurement,setting,value
hexaquis(benzylammonium) decavanadate (V) dihydrate [Entry B6V10],"plasma concentrations of free fatty acids, triglycerides and cholesterol",diabetic rats,"normalized the plasma concentrations of free fatty acids, triglycerides and cholesterol"
same,stimulation of glucose transport at 25 μM compared with the combination of benzylamine and vanadate,"isolated rat adipocytes; 25 μM vs 100 μM benzylamine and 100 μM vanadate, rat adipocytes",greater stimulation of glucose transport than the combination of 100 μM benzylamine and 100 μM vanadate
same,stimulation of glucose transport in the presence of semicarbazide,isolated rat adipocytes; isolated rat adipocytes,completely blocked by semicarbazide; also recorded: blocked in the presence of semicarbazide
same,stimulation of glucose transport in the presence of semicarbazide,isolated rat adipocytes; [2],completely blocked by semicarbazide; also recorded: this effect was inhibited
same,stimulation of glucose transport (2-DG uptake),isolated rat adipocytes; isolated rat adipocytes,stimulated glucose transport in rat adipocytes in a concentration-dependent manner
same,stimulation of glucose transport (2-DG uptake),isolated rat adipocytes; [2],pronounced stimulation on glucose transport
same,concentration from which stimulation of glucose transport was perceptible,isolated rat adipocytes; [3],≥ 0.5 µM
same,concentration of maximal effect on glucose transport,isolated rat adipocytes; [3],2.5 µM
same,EC50,"isolated rat adipocytes; isolated rat adipocytes, FIG. 1, read-out: concentration of semi-maximal effect on glucose transport",> 1000 nM
same,maximum effect on glucose transport compared with benzylamine and vanadate in combination,"isolated rat adipocytes; isolated rat adipocytes, combination 100 μM sodium vanadate and 100 μM benzylamine (FIG. 1)",greater than that produced by the presence of benzylamine and vanadate in combination
same,maximal effect on glucose transport as % of the maximal stimulation caused by insulin,"isolated rat adipocytes; rat adipocytes, 100 nM insulin",85%
same,"glycemia, oral 5 μmol/kg/day",[1]; 5 μmol/kg/day for seven days,moderate decrease of hyperglycemia that was detected after but two days of treatment
same,"glycemia, oral dose increased to 10 μmol/kg/day",[1]; 10 μmol/kg/day for an additional ten days,additional decrease in glycemia
same,glycemia during chronic oral treatment,"[1]; daily oral, 17 days (5 then 10 μmol/kg/day), STZ 45 mg/kg rats, dihydrate",ameliorated hyperglycemia; also recorded: significant correction of hyperglycemia
same,glycemia,"[1]; oral treatment, after dose increase to 10 μmol/kg/day",approximately 250 mg/dl
